Earlier results as cited in patent US20230330042A1, “FORMULATION FOR ORAL ADMINISTRATION” (NIPPON ZOKI PHARMACEUTICAL CO., LTD., priority 2020, published 2023).
pKi: −log10 of the molar value. Read-outs that look alike come from different tables or passages of the source.

Assays:
[1] = target: κ-opioid receptor (Homo sapiens, UniProt P41145); settings: read-out: Ki κ
[2] = target: Noradrenaline reuptake (Homo sapiens, UniProt P23975)
[3] = target: δ-opioid receptor (Homo sapiens, UniProt P41143); settings: read-out: Ki δ; Mean value (n = 2-3)
[4] = target: μ-opioid receptor (Homo sapiens, UniProt P35372); settings: read-out: Ki μ; Mean value (n = 2-3)
[5] = target: Serotonin reuptake (Homo sapiens, UniProt P31645); settings: read-out: Ki Serotonin
[6] = in vivo
[7] = Mean value (n = 2-3); NA: no activity at 10 μmol/L; read-out: Ki Noradrenaline
[8] = read-out: Ki Noradrenaline; Mean value (n = 2-3); NA: no activity at 10 μmol/L

Chain of Noradrenaline reuptake (P23975 whole entry): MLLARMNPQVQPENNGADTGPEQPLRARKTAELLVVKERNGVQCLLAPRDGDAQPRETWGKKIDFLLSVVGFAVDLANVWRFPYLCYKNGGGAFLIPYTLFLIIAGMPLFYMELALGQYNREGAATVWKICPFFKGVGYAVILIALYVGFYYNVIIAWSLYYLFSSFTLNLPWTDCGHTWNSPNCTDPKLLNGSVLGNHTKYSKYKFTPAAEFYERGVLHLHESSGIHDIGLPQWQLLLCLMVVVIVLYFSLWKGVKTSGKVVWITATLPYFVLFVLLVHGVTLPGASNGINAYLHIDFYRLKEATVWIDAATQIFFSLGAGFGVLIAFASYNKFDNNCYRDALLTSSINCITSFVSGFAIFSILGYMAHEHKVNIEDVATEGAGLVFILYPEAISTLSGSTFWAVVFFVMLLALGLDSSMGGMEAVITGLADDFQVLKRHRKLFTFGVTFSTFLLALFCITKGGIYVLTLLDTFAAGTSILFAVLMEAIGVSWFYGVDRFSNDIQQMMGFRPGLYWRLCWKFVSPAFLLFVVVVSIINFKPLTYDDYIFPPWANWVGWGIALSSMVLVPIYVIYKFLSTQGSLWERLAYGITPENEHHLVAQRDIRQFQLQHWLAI
Chain of κ-opioid receptor (P41145 whole entry): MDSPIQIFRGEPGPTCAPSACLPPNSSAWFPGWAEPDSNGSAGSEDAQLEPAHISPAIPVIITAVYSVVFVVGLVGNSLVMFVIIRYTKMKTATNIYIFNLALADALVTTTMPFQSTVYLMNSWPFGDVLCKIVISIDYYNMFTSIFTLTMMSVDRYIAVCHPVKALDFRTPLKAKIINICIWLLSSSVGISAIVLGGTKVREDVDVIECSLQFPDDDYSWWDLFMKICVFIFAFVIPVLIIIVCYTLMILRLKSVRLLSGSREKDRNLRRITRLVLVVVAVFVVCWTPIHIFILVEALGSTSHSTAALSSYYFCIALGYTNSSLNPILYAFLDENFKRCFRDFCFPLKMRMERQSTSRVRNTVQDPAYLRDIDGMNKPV
Chain of δ-opioid receptor (P41143 whole entry): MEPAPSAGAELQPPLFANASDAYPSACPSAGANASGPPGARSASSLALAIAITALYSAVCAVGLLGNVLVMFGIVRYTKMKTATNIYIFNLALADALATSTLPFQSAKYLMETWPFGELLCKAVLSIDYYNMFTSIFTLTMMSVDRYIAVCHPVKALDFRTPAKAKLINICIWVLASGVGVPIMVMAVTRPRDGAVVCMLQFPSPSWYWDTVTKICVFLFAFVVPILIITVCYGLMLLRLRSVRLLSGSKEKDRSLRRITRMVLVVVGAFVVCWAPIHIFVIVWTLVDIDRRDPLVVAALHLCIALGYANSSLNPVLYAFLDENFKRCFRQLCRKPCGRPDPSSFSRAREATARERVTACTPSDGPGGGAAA
Chain of μ-opioid receptor (P35372 whole entry, species assumed): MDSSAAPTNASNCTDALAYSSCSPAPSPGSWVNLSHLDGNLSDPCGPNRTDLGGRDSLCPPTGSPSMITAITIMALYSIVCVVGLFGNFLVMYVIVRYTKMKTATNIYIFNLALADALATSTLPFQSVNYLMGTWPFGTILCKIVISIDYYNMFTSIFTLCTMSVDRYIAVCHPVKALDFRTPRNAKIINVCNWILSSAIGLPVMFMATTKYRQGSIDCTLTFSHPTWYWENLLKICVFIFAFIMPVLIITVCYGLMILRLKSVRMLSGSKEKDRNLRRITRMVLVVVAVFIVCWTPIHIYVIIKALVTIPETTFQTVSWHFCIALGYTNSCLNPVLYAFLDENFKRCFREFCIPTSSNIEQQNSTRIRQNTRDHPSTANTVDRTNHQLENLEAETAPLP
Chain of Serotonin reuptake (P31645 whole entry): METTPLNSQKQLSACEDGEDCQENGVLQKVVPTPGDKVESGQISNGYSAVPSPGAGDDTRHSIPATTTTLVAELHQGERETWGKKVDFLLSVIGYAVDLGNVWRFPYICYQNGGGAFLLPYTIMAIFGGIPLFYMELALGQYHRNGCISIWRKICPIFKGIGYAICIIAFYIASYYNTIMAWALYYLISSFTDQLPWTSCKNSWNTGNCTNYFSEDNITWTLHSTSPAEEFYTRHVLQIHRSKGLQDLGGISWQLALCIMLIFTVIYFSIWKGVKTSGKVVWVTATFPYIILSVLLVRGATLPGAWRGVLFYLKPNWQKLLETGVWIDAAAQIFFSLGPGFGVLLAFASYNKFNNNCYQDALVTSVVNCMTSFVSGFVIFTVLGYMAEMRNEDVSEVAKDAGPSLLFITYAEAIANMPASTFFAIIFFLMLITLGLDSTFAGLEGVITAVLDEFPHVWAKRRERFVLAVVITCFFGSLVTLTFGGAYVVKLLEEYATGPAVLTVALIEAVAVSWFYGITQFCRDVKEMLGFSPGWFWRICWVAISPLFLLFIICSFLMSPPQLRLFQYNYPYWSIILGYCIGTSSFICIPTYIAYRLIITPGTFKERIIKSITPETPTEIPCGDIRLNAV

Row | SMILES | pKi ([1]; Mean value (n = 2-3)) | pKi [2, 7] | pKi [3] | pKi [1] | other results
1 | CN(C)CC1CCCCC1(O)c1cccc(O)c1 (single isomer, unassigned; (-)) [(−)-M1] | 4.48 | 6.07 | 4.52 |  | 
2 | CN(C)CCCN1c2ccccc2CCc2ccccc21 [Imipramine] |  |  | 4.90 |  | pKi [4]: 5.43
3 | COc1cccc(C2(O)CCCCC2CN(C)C)c1 (single isomer, unassigned; (+)) [(+)-Tramadol, (+)-tramadol] |  | 5.60 | 5.20 | 4.27 | 
4 | COc1ccc2c3c1O[C@H]1[C@@H](O)C=C[C@H]4[C@@H](C2)N(C)CC[C@@]341 [Codeine] |  |  |  |  | pKi [2, 8]: < 5.00; pKi [5]: < 5.00
5 | COc1cccc(C2(O)CCCCC2CN(C)C)c1 (single isomer, unassigned; (-)) [(−)-Tramadol, (−)-tramadol] |  | 6.36 | 3.67 | 4.27 | 
6 | CN(C)CC1CCCCC1(O)c1cccc(O)c1 (racemic) [(±)-M1, O-desmethyltramadol] | 6.62 | 5.82 |  |  | half-life ([6]; po): 6 to 7 h
7 | CN(C)CC1CCCCC1(O)c1cccc(O)c1 (single isomer, unassigned; (+)) [(+)-M1] | 6.15 | 4.84 | 6.23 |  | 
8 | COc1cccc([C@@]2(O)CCCC[C@@H]2CN(C)C)c1 (racemic) [(±)-Tramadol, (1RS,2RS)-2-[(dimethylamino)methyl]-1-(3-methoxyphenyl)cyclohexanol] |  |  | 4.24 | 4.37 | pKi [2, 8]: 6.11; unchanged tramadol and metabolites excreted through the kidney [6]: about 90%; half-life ([6]; po): 5 to 6 h; time after administration at which the maximum drug concentration is reached ([6]; po): 1.6 to 1.9 h; time at which the maximum concentration in the brain is reached ([6]; po): 10 min
